This is an account of results in publication PMC11742280, “A phase I study of MLN4924 and belinostat in relapsed/refractory acute myeloid leukemia or myelodysplastic syndrome” (Cancer Chemotherapy and Pharmacology, 2025).

The conditions of data set [1]: in vivo.
Protocol: (§1) Belinostat was administered by a 30 min intravenous (IV) infusion on days 1 through 5 of each cycle; pevonedistat was administered by a 60 min IV infusion on days 1, 3 and 5 immediately after belinostat. The treatments were repeated on 21-day cycles until disease progression or unacceptable toxicity. […] The regimen was administered on an outpatient basis.
(§2) Blood samples for measurement of plasma concentrations were collected on day 1 of cycle 1 for both belinostat and pevonedistat. Belinostat, PK samples were collected pretreatment, 5 min prior to the end of the infusion, and at 0.25, 0.5, 1, 2, 4, 6, 8, and 24 h after the end of the infusion. Pevonedistat, PK samples were collected pretreatment and 0.5, 1, 2, 2.5, 5, and 24 h after the start of the infusion. Plasma was stored at − 80 °C until analysis. […] Concentrations of belinostat were determined over the range of 30–5000 ng/mL with dilutions of up to 1:100 v/v using a validated LC/MS/MS method at the Analytical Pharmacology Core Laboratory at the Sidney Kimmel Comprehensive Cancer Center at Johns Hopkins [33].
(§3) Pharmacokinetic parameters were calculated from individual concentration–time data using standard noncompartmental methods as implemented in Phoenix WinNonlin version 8.2 (Pharsight A Certara Company, Cary, North Carolina). Pharmacokinetic parameters were summarized using descriptive statistics. Differences between the pharmacokinetic parameters between dose levels or BSA-based dose were evaluated statistically via the nonparametric Kruskal–Wallis test. All statistical tests were performed using JMP Statistical Discovery software (version 7; SAS Institute, Cary, NC).
Details of data set [2]: method as in PMID 31097586, PMID 33441097. The conditions noted are these: e.g. value, compared with clinical Cmax; cited from earlier work.
For data set [3], the system named is relapsed/refractory AML and myelodysplastic syndrome. More on the design: method as in PMID 24369094, PMID 21538061. The conditions noted are these: some patients; cited from earlier work.
Data set [4] is described as follows: Plasma pharmacokinetics of belinostat and belinostat glucuronide (LC/MS/MS, noncompartmental analysis).
Protocol: as §1, §2, §3
The subject of data set [5] is high-risk MDS. More on the design: method as in PMID 35728048. As to conditions: comparator (azacitidine without pevonedistat); subset with high-risk MDS, post-hoc analysis; cited from earlier work.
Where [6] appears, read: cycle 1 day 1, dose level 1, belinostat 800 mg/m^2 IV (pevonedistat 20 mg/m^2), n=2, actual values.
Where [7] appears, read: cycle 1 day 1, dose level 3, belinostat 800 mg/m^2 IV (pevonedistat 37 mg/m^2), n=2, actual values.

Molecules are shown by their SMILES. Where two headings read alike, the source gives them in different places.

Turning to `O=C(/C=C/c1cccc(S(=O)(=O)Nc2ccccc2)c1)NO[C@@H]1O[C@H](C(=O)O)[C@@H](O)[C@H](O)[C@H]1O` [Belinostat glucuronide], the “Pharmacokinetic parameters compared between dose levels” value in data set [1] is “not different by dose level”.

With `O=C(/C=C/c1cccc(S(=O)(=O)Nc2ccccc2)c1)NO` [Belinostat], the “Concentrations shown to exert activity in preclinical studies” value in data set [2] was 100 to 200 nM. In data set [3], the Single-agent clinical activity entry is listed as “stable disease over several months”. The “Belinostat clearance by BSA-based dose” value in data set [4] (1000 mg/m^2 compared with 800 mg/m^2, p = 0.05, Kruskal–Wallis) is recorded as “significantly higher”. Further, the AUCINF in data set [4] (setting [6]) is given as 75.2 µM·h; in data set [4] (setting [7]), 87.4 µM·h. The “Cl (systemic clearance)” value in data set [4] (setting [6]) worked out at 87.5 L/h; in data set [4] (setting [7]), 82.4 L/h. For the same compound, the T1/2 in data set [4] (setting [6]) was 40.2 min; in data set [4] (setting [7]), 87.6 min. The Tmax is 0.5 (0.4–0.5; 3) h in data set [4] (cycle 1 day 1, dose level 2, belinostat 800 mg/m^2 IV (pevonedistat 25 mg/m^2), median (range; n)); 0.4 (0.4–0.5; 3) h in data set [4] (cycle 1 day 1, dose level 3, belinostat 800 mg/m^2 IV (pevonedistat 37 mg/m^2), median (range; n)); 30 min in data set [4] (human, plasma, iv). Moreover, the “Pharmacokinetic parameters compared between dose levels” value in data set [4] (dose levels 1-5, Kruskal–Wallis) is “not different by dose level”. In addition, the AUC(0-inf) turned out to be 67.5 ± 19.1 µM·h in data set [4] (human, plasma, iv, 800 mg/m2, AUCINF, cycle 1 day 1, belinostat 800 mg/m^2 IV, all 800 mg/m^2 patients (dose levels 1-3), mean±SD, n=7); 51.6 ± 25.8 µM·h in data set [4] (human, plasma, iv, 1000 mg/m2, AUCINF, cycle 1 day 1, belinostat 1000 mg/m^2 IV, all 1000 mg/m^2 patients (dose levels 4-5), mean±SD, n=7); 54.6 µM·h in data set [4] (human, plasma, iv, AUCINF, cycle 1 day 1, dose level 1, belinostat 800 mg/m^2 IV (pevonedistat 20 mg/m^2), n=2, actual values); 64.7 ± 27.4 µM·h in data set [4] (human, plasma, iv, AUCINF, cycle 1 day 1, dose level 2, belinostat 800 mg/m^2 IV (pevonedistat 25 mg/m^2), mean±SD, n=3); 61 µM·h in data set [4] (human, plasma, iv, AUCINF, cycle 1 day 1, dose level 3, belinostat 800 mg/m^2 IV (pevonedistat 37 mg/m^2), n=2, actual values); 60.3 ± 39.2 µM·h in data set [4] (human, plasma, iv, AUCINF, cycle 1 day 1, dose level 4, belinostat 1000 mg/m^2 IV (pevonedistat 37 mg/m^2), mean±SD, n=3). The compound further registered an AUC(0-inf) in data set [4] (human, plasma, iv, AUCINF, cycle 1 day 1, dose level 5, belinostat 1000 mg/m^2 IV (pevonedistat 50 mg/m^2), mean±SD, n=4) of 45.1 ± 13.4 µM·h. Further, the clearance in data set [4] (human, plasma, iv, 800 mg/m2, Cl (systemic clearance), cycle 1 day 1, belinostat 800 mg/m^2 IV, all 800 mg/m^2 patients (dose levels 1-3), mean±SD, n=7) was 1290 mL/min; in data set [4] (human, plasma, iv, 1000 mg/m2, Cl (systemic clearance), cycle 1 day 1, belinostat 1000 mg/m^2 IV, all 1000 mg/m^2 patients (dose levels 4-5), mean±SD, n=7), 2180 mL/min; in data set [4] (human, plasma, iv, Cl (systemic clearance), cycle 1 day 1, dose level 1, belinostat 800 mg/m^2 IV (pevonedistat 20 mg/m^2), n=2, actual values) it was 1000 mL/min; in data set [4] (human, plasma, iv, Cl (systemic clearance), cycle 1 day 1, dose level 2, belinostat 800 mg/m^2 IV (pevonedistat 25 mg/m^2), mean±SD, n=3), 1380 mL/min; in data set [4] (human, plasma, iv, Cl (systemic clearance), cycle 1 day 1, dose level 3, belinostat 800 mg/m^2 IV (pevonedistat 37 mg/m^2), n=2, actual values), 1030 mL/min; in data set [4] (human, plasma, iv, Cl (systemic clearance), cycle 1 day 1, dose level 4, belinostat 1000 mg/m^2 IV (pevonedistat 37 mg/m^2), mean±SD, n=3), 2020 mL/min. The clearance in data set [4] (human, plasma, iv, Cl (systemic clearance), cycle 1 day 1, dose level 5, belinostat 1000 mg/m^2 IV (pevonedistat 50 mg/m^2), mean±SD, n=4) is 2300 mL/min. In addition, the half-life (in general, the time needed for the level to fall by half in the phase considered) was 67.8 ± 30 min in data set [4] (human, plasma, iv, 800 mg/m2, T1/2, cycle 1 day 1, belinostat 800 mg/m^2 IV, all 800 mg/m^2 patients (dose levels 1-3), mean±SD, n=7); 53.4 ± 18 min in data set [4] (human, plasma, iv, 1000 mg/m2, T1/2, cycle 1 day 1, belinostat 1000 mg/m^2 IV, all 1000 mg/m^2 patients (dose levels 4-5), mean±SD, n=7); 35.4 min in data set [4] (human, plasma, iv, T1/2, cycle 1 day 1, dose level 1, belinostat 800 mg/m^2 IV (pevonedistat 20 mg/m^2), n=2, actual values); 81.6 ± 36.6 min in data set [4] (human, plasma, iv, T1/2, cycle 1 day 1, dose level 2, belinostat 800 mg/m^2 IV (pevonedistat 25 mg/m^2), mean±SD, n=3); 67.2 min in data set [4] (human, plasma, iv, T1/2, cycle 1 day 1, dose level 3, belinostat 800 mg/m^2 IV (pevonedistat 37 mg/m^2), n=2, actual values); 61.2 ± 26.4 min in data set [4] (human, plasma, iv, T1/2, cycle 1 day 1, dose level 4, belinostat 1000 mg/m^2 IV (pevonedistat 37 mg/m^2), mean±SD, n=3). The half-life in data set [4] (human, plasma, iv, T1/2, cycle 1 day 1, dose level 5, belinostat 1000 mg/m^2 IV (pevonedistat 50 mg/m^2), mean±SD, n=4) was 47.4 ± 7.2 min. Further, the Cmax in data set [4] (human, plasma, iv, 1000 mg/m2, preEOI Cmax (peak plasma concentration), cycle 1 day 1, belinostat 1000 mg/m^2 IV, all 1000 mg/m^2 patients (dose levels 4-5), mean±SD, n=7) came out at 104 ± 37.8 µM; in data set [4] (human, plasma, iv, preEOI Cmax (peak plasma concentration), cycle 1 day 1, dose level 1, belinostat 800 mg/m^2 IV (pevonedistat 20 mg/m^2), n=2, actual values) it was 109 µM; in data set [4] (human, plasma, iv, preEOI Cmax (peak plasma concentration), cycle 1 day 1, dose level 2, belinostat 800 mg/m^2 IV (pevonedistat 25 mg/m^2), mean±SD, n=3), 120 ± 50.3 µM; in data set [4] (human, plasma, iv, preEOI Cmax (peak plasma concentration), cycle 1 day 1, dose level 4, belinostat 1000 mg/m^2 IV (pevonedistat 37 mg/m^2), mean±SD, n=4) it was 96.5 ± 46 µM; in data set [4] (human, plasma, iv, preEOI Cmax (peak plasma concentration), cycle 1 day 1, dose level 5, belinostat 1000 mg/m^2 IV (pevonedistat 50 mg/m^2), mean±SD, n=3), 114 ± 29.4 µM; in data set [4] (read-out: preEOI Cmax (peak plasma concentration), cycle 1 day 1, belinostat 800 mg/m^2 IV, all 800 mg/m^2 patients (dose levels 1-3), mean±SD, n=8) it was 123 ± 34.3 µM. In addition, the Cmax in data set [4] (read-out: preEOI Cmax (peak plasma concentration), cycle 1 day 1, dose level 1, belinostat 800 mg/m^2 IV (pevonedistat 20 mg/m^2), n=2, actual values) is 144 µM; in data set [4] (read-out: preEOI Cmax (peak plasma concentration), cycle 1 day 1, dose level 3, belinostat 800 mg/m^2 IV (pevonedistat 37 mg/m^2), mean±SD, n=3) it was 125 ± 35 µM.

In the case of `Nc1ncn([C@@H]2O[C@H](CO)[C@@H](O)[C@H]2O)c(=O)n1` [azacitidine], the Survival in data set [5] is given as 20.6 mos.
